Results from patent US20150359812A1, “PROPHYLACTIC/THERAPEUTIC AGENT FOR DRY EYE” (priority 2012, published 2015).

Legend:
[1] = tested on: radical oxygen species in lacrimal gland tissue; experiment: Inhibitory action to radical oxygen species using isolated lacrimal glands of mice (DCFH-DA fluorescence); format: cell-based; settings: for inhibition of radical oxygen by isolated delphinidin glycosides, FIG. 6: lacrimal gland cell suspension, DCFH-DA; for inhibition of radical oxygen in lacrimal cells, FIG. 12: comparison of delphinidin glycosides
Experimental: The action of the maqui berry extract to radical oxygen species in lacrimal gland tissue was evaluated using mice […].
The evaluation of the inhibitory action to radical oxygen species was done in the following way.
An isolated lacrimal gland was placed in a test tube, and 25 mg tissue/mL of cold phosphate-buffered saline (PBS) was added. After that, zirconia beads were added to the lacrimal gland that is to be crushed by a bead grinder. Then, 50 μL each of cell suspension was dispensed. Then, the maqui berry extract of Working Example 1 (1, 10 μg/mL) was added to the cell suspension, and then DCFH-DA solution as the radical oxygen series was added to make the final level of concentration at 75 μm. Then, after 60 minutes of incubation at 37 degrees Celsius, the cells were washed in PBS. The fluorescence-plate reader measured the intensity of fluorescence at (X485/528).
As a Comparative Example, the same test was done on lutein 10 μg/mL (compare and contrast).
Also, as a Comparative Example, the same test was done on the bilberry extract (Indena) and on the black currant extract (Tama Biochemical Co., Ltd.).
Furthermore, the same tests were done on the following examples.
Regarding Fr. 2: delphinidin-3,5-diglucoside (Working Example 3), Fr. 6: delphinidin-3-glucoside (Working Example 5) and delphinidin-3-rutinoside (Comparative Example 1: substance contained in cassis), the same evaluation as in Test Example 2 was done.
Regarding Fr. 6 delphinidin-3-glucoside (Working Example 5) and the other anthocyanin series (petunidin-3-glucoside, peonidin-3-glucoside, malvidin-3-glucoside and cyaniding-3-glucoside), the evaluation of Test Example 2 was done.

[2] = tested on: lacrimal cells; experiment: Absorption test of anthocyanins into lacrimal cells (HPLC); format: in vitro ADME; settings: 100 μM, 30 minutes at 37 degrees Celsius, compared with D3G and D3R
Experimental: The test was done in the following way. Each anthocyanin (of delphinidin-3,5-diglucoside, delphinidin-3-O-glucoside and delphinidin-3-Orutinoside) was added to the lachrymal-cells suspension at the final concentration of 100 μM.
After that, the suspension was incubated for 30 minutes at 37 degrees Celsius. Then, the cells were washed and suspended again in the buffer. Thus, the amount of anthocyanin was analyzed by HPLC. The analysis is as follows.
The condition of HPLC is as follows:
Column: YMC UltraHT Pro C18 dia.2.0×100 mm
Column temperature: 30 degrees Celsius
Eluent: A=0.3% TFA aqueous solution, B=acetonitrile
Flow rate: 0.3 mL/min, Injection volume: 50 μL
Quantitative limit: 2 ng/mL (cyaniding-3-O-glucoside)

## OC[C@H]1O[C@@H](Oc2cc(O)cc3[o+]c(-c4cc(O)c(O)c(O)c4)c(O[C@@H]4O[C@H](CO)[C@@H](O)[C@H](O)[C@H]4O[C@@H]4OC[C@@H](O)[C@H](O)[C@H]4O)cc23)[C@H](O)[C@@H](O)[C@@H]1O [Fr. 1, Delphinidin-3sambubioside-5-glucoside]
[1]
  inhibition of radical oxygen by isolated delphinidin glycosides, FIG. 6: significantly inhibited

## CC1O[C@@H](OC[C@H]2OC(Oc3cc4c(O)cc(O)cc4[o+]c3-c3cc(O)c(O)c(O)c3)[C@H](O)C(O)C2O)C(O)C(O)[C@H]1O (stereo partly drawn) [delphinidin-3-rutinoside, reference compound]
[1]
  inhibition of radical oxygen in lacrimal cells, FIG. 12: did not inhibit

## OC[C@H]1O[C@@H](Oc2cc3c(O)cc(O)cc3[o+]c2-c2cc(O)c(O)c(O)c2)[C@H](O[C@@H]2OC[C@@H](O)[C@H](O)[C@H]2O)[C@@H](O)[C@@H]1O [Fr. 5, Delphinidin-3-sambubioside]
[1]
  inhibition of radical oxygen by isolated delphinidin glycosides, FIG. 6: significantly inhibited

## OC[C@H]1O[C@@H](Oc2cc3c(O)cc(O)cc3[o+]c2-c2cc(O)c(O)c(O)c2)[C@H](O)[C@@H](O)[C@@H]1O [Fr. 6, Delphinidin-3-glucoside]
[1]
  inhibition of radical oxygen in lacrimal cells, FIG. 12: inhibited
  inhibition of radical oxygen by isolated delphinidin glycosides, FIG. 6: significantly inhibited

## OC[C@H]1O[C@@H](Oc2cc3c(O[C@@H]4O[C@H](CO)[C@@H](O)[C@H](O)[C@H]4O)cc(O)cc3[o+]c2-c2cc(O)c(O)c(O)c2)[C@H](O)[C@@H](O)[C@@H]1O [Fr. 2, Delphinidin-3,5-diglucoside]
[2]
  amount of absorption of anthocyanin into the lacrimal cells, FIG. 14: absorbed by the lacrimal cells more
[1]
  inhibition of radical oxygen in lacrimal cells, FIG. 12: excellent inhibitory action
  inhibition of radical oxygen by isolated delphinidin glycosides, FIG. 6: significantly inhibited
[1]; comparison with petunidin-, peonidin-, malvidin- and cyanidin-3-glucoside
  action in inhibiting radical oxygen in lacrimal cells compared to other anthocyanins, FIG. 13: especially excellent action
